Source: US8076348B2, “Acylguanidine derivative or salt thereof” (Astellas Pharma Inc., priority 2005, dated 2011)
Each block holds one compound with its values, some of them ahead of it.

Columns and labels:
Hartley male guinea pigs = assay: Preventive effect in guinea pig migraine model (5-HT-induced dura mater protein leakage); format: in vivo; conditions: for minimum amount showing the maximum drug efficacy / dose at which the leaked protein quantity-reducing action was shown / lowering of leaked protein quantity to the standard value when the dose was increased: intravenous; for dose at which the leaked protein quantity-reducing action was shown: 5-HT-induced leakage; for lowering of leaked protein quantity to the standard value when the dose was increased: RS-127445 3 to 10 mg/kg, SB-269970 10 to 30 mg/kg
Description: Test Method (5) Preventive Effect in Guinea Pig Migraine Model
This test system evaluates the migraine-preventive effect by measuring the amount of this leaked protein in the presence of a compound to be tested and was carried out by partially modifying the method described by Rachel A. Spokes and Vicki C. Middlefell in “European Journal of Pharmacology”, (Holland), 1995, vol. 281, p. 75-79.
Hartley male guinea pigs (250 to 350 g) were anesthetized by the intraperitoneal administration (i.p.) of urethane (1.5 g/kg). By applying a simple canulation to a latent vein, 50 mg/kg of a fluorescent protein (FITC-BSA) was intravenously administered (i.v.) and, 5 minutes thereafter, physiological saline or 1 μmol/ml/kg of 5-HT was intravenously administered. Perfusion was carried out with physiological saline 15 minutes thereafter and blood was washed out. […] By detaching the skull, the dura mater was extracted and incubated in an Eppendorf tube at 37° C. for 16 hours in the presence of physiological saline adjusted to pH 11. By carrying out a centrifugal operation, the supernatant was dispensed into a plate. The fluorescence intensity was measured using a fluorescence plate reader (excitation wavelength 485 nm, […] 530 nm). By weighing the dura mater weight, the fluorescence intensity per mg dura mater protein was calculated.
The values of fluorescence intensity measured at the time of the administration and non-administration of each compound are shown in FIG. 4 to FIG. 7.

5-HT2B receptor [1] = target: T1, 5-HT2B receptor (Homo sapiens, UniProt P41595); assay: 5-HT2B receptor binding test; design: expressed in transfected cells; host or cells: HEK293-EBNA cells (membrane sample); conditions: [3H] Mesulergine, human 5-HT2B receptor expressing HEK293-EBNA cell membrane
T1 sequence (P41595 whole entry): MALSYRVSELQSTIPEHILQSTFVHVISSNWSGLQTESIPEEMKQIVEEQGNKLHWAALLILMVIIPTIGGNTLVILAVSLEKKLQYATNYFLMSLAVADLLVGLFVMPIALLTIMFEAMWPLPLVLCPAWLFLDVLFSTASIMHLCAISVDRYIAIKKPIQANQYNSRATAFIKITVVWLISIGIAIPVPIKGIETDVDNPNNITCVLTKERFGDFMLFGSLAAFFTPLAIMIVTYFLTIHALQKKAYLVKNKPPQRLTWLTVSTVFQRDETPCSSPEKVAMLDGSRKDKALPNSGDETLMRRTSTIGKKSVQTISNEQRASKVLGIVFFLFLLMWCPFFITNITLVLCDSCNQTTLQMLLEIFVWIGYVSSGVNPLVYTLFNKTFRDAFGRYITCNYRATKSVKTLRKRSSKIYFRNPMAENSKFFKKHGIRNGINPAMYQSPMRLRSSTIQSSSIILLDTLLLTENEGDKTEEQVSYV
Description: Test Method (1) 5-HT2B Receptor Binding Test
(i) Membrane Sample Preparation
(§1) Cultured human 5-HT2B receptor-expressing HEK293-EBNA cells were washed with a phosphate buffer (PBS)(−). The cells were peeled off using a scraper in the presence of PBS(−), and the cells were recovered by a centrifugal treatment (1,000 rpm, 10 min, 4° C.). In the presence of 5 mM tris-hydrochloric acid (Tris-HCl) (pH 7.4) buffer, these were homogenized using a homogenizer (registered trademark: Polytron (PTA 10-TS)) and subjected to a centrifugal treatment (40,000×g, 10 min, 4° C.). In the presence of 50 mM Tris-HCl (pH 7.4) buffer, these were suspended using a glass-Teflon (registered trademark) homogenizer. By carrying out a centrifugal treatment (40,000×g, 10 min, 4° C.), these were suspended in 50 mM Tris-HCl (pH 7.4) and stored at −80° C.
(§2) (ii) Receptor Binding Test
(§3) A total volume of 500 μl containing 50 mM Tris-HCl, 4-mM-CaCl2 (pH 7.4) buffer, the human 5-HT2B receptor expressing HEK293-EBNA cell membrane sample and a radio ligand [^3H] Mesulergine (3.1 TBq/mmol); was incubated at 25° C. for 1 hour. The compound was dissolved in 100% DMSO and diluted to respective concentrations. Nonspecific binding was regarded as the binding quantity in the presence of 1 μM ritanserin, and a result of subtracting the nonspecific binding quantity from the total binding quantity was regarded as the specific binding quantity. By adding 4 ml of 50 mM Tris-HCl buffer (pH 7.4), filtered under a reduced pressure trough a GF/B glass filter, and the filter was washed with the same buffer (4 ml×3). The glass filter was soaked in 5 ml of a liquid scintillator (trade name: Aquasol-2), and the radioactivity quantity was measured using a liquid scintillation counter.

human 5-HT7 receptor = target: T2, human 5-HT7 receptor (Homo sapiens, UniProt P34969); assay: 5-HT7 receptor binding test; conditions: [3H] 5-HT, human 5-HT7 receptor expressing CHO cell membrane
T2 construct: expressed in transfected cells; host or cells: CHO cells (membrane sample)
T2 sequence (P34969 whole entry): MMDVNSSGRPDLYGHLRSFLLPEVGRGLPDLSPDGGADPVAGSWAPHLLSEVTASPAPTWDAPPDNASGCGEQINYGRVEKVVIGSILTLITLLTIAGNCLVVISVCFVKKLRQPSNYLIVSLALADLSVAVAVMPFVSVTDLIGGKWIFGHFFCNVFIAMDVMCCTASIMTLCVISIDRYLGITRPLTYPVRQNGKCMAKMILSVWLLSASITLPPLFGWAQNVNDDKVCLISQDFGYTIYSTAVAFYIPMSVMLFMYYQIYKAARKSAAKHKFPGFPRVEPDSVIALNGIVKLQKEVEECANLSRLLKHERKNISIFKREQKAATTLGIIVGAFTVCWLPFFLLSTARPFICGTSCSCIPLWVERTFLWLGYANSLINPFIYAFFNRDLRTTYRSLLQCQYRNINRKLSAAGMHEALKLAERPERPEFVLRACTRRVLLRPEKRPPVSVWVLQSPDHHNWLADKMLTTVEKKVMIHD
Description: Test Method (2) 5-HT7 Receptor Binding Test (i) Membrane Sample Preparation
as §1, with “5-HT7 receptor expressing CHO” for “5-HT2B receptor-expressing HEK293-EBNA”, “PBS(−).” for “with a phosphate buffer (PBS)(−).”, “Tris-HCl” for “tris-hydrochloric acid (Tris-HCl)”
as §2
as §3, with “Tris-HCl, 4 mM CaCl2” for “Tris-HCl, 4-mM-CaCl2”, “human 5-HT7” for “human 5-HT2B”, “expressing CHO” for “expressing HEK293-EBNA”, “[^3H] 5-HT (3.40 TBq/mmol)” for “[^3H] Mesulergine (3.1 TBq/mmol);”, “of 10” for “of 1”, “μM metergoline,” for “μM ritanserin,”

male Wistar rats = assay: Inhibitory effect for defecation at the time of confined stress loading (rat confined stress defecation model); format: in vivo; conditions: for action to suppress defecation (number of feces): 10 mg/kg p.o., compound used independently, feces counted 1 hour after stress loading, 10 mg/kg; for number of feces, significant difference in comparison with the non-administration group: rat, 1, 3 and 10 mg/kg administration groups, N=10
Description: Test Method (4) Inhibitory Effect for Defecation at the Time of Confined Stress Loading
The IBS-treating effect of the compound (I) of the present invention was evaluated using a method in which a confined stress is applied to rats and the evacuation quantity is measured (cf. “The Journal of Pharmacology Experimental Therapeutics”, (USA), 1992, vol. 261, p. 297-303).
An agent to be tested was administered to male Wistar rats (body weight 250 to 320 g, 10 animals for each group) and a confined stress was applied thereto 30 minutes thereafter. A confining cage (trade name: KN-468, 265 mm in width×95 mm in length×200 mm in height, Natsume Seisakusho, Tokyo) was used in the confined stress loading, and the number of feces during 1 hour after the stress loading was counted.

5-HT2B receptor [2] = target: T1, 5-HT2B receptor; conditions: literature value; cited from earlier work

Ki (5-HT2B receptor [1]): 4.6 nM
Ki (human 5-HT7 receptor): 0.64 nM
Structure (SMILES): CC(C)n1c2ccccc2c2ccc(C(=O)N=C(N)N)cc21 [Example 1, N-(diaminomethylene)-9-isopropyl-9H-carbazole-2-carboxamide]
leaked protein quantity (Hartley male guinea pigs; 30 mg/kg oral administration): almost completely suppressed the leaked protein quantity

Ki (5-HT2B receptor [1]): 0.83 nM
Ki (human 5-HT7 receptor): 0.78 nM
Structure (SMILES): NC(N)=NC(=O)c1ccc2c(c1)C1(SCCS1)c1ccsc1-2 [Example 81, N-(diaminomethylene)spiro[1,3-dithiolan-2,4′-indeno[1,2-b]thiophene]-6′-carboxamide]

Ki (5-HT2B receptor [1]): 1.3 nM
Ki (human 5-HT7 receptor): 2.5 nM
Structure (SMILES): NC(N)=NC(=O)c1ccc2c(c1)C1(CCCO1)c1ccsc1-2 (centres unmarked) [Example 84, N-(diaminomethylene)-4,5-dihydro-3H-spiro[furan-2,4′-indeno[1,2-b]thiophene]-6′-carboxamide]
ED50 (male Wistar rats; po, rat, p.o., read-out: ED50 (50% effective dose), suppressing action on defecation): 0.72 mg/kg

Ki (5-HT2B receptor [1]): 1.5 nM
Ki (human 5-HT7 receptor): 0.99 nM
Structure (SMILES): COC1(C)c2cc(C(=O)N=C(N)N)ccc2-c2sccc21 (centres unmarked) [Example 83]

Ki (5-HT2B receptor [1]): 0.26 nM
Ki (human 5-HT7 receptor): 2.6 nM
Structure (SMILES): CC(C)N1c2ccccc2Oc2ccc(C(=O)N=C(N)N)cc21 [Example 66, N-(diaminomethylene)-10-isopropyl-10H-phenoxazine-2-carboxamide]

Structure (SMILES): CC(C)c1cc(-c2ccc(F)c3ccccc23)nc(N)n1 [RS-127445, 2-amino-4-(4-fluoronaphth-1-yl)-6-isopropylpyrimidine]
minimum amount showing the maximum drug efficacy (Hartley male guinea pigs): 3 mg/kg
dose at which the leaked protein quantity-reducing action was shown (Hartley male guinea pigs): 3 mg/kg
lowering of leaked protein quantity to the standard value when the dose was increased (Hartley male guinea pigs): did not lower it to the standard value
5-HT2B receptor-selective against 5-HT1A, 5-HT1B, 5-HT2A, 5-HT2C, 5-HT3, 5-HT6, 5-HT7, α1, M1, D2 and the like receptors (5-HT2B receptor [2]): ≥ 1000 times
action to suppress defecation (number of feces) (male Wistar rats; rat): did not show the action to suppress defecation
number of feces, significant difference in comparison with the non-administration group (male Wistar rats): Significant difference was not found

Structure (SMILES): CC1CCN(CC[C@H]2CCCN2S(=O)(=O)c2cccc(O)c2)CC1 [SB-269970, (R)-3-(2-(2-(4-methylpiperidine-1-yl)ethyl)pyrrolidine-1-sulfonyl)phenol]
minimum amount showing the maximum drug efficacy (Hartley male guinea pigs): 10 mg/kg
dose at which the leaked protein quantity-reducing action was shown (Hartley male guinea pigs): 10 mg/kg
lowering of leaked protein quantity to the standard value when the dose was increased (Hartley male guinea pigs): did not lower the leaked protein quantity to the standard value
action to suppress defecation (number of feces) (male Wistar rats; rat): did not show the action to suppress defecation
number of feces, significant difference in comparison with the non-administration group (male Wistar rats): Significant difference was not found
